Measured values as given in patent US9163011B2, “Oxazine derivatives and their use in the treatment of disease” (NOVARTIS AG, priority 2011, dated 2015).

How the values were obtained:
[1] = Test 4: Inhibition of Cellular Release of Amyloid Peptide 1-40; type: cell-based, Chinese hamster; details: Cricetulus griseus; CHO cells with human APP, 24 hours with compound; read-out: Test 4 Amyloid-β1-40 release IC50
Procedure: The cells are plated at a density of 8000 cells/well into 96-well microtiter plates and cultivated for 24 hours in DMEM cell culture medium containing 10% FCS. The test compound is added to the cells at various concentrations, and the cells are cultivated for 24 hours in the presence of the test compound. […] The potency of the compound is calculated from the percentage of inhibition of amyloid peptide release as a function of the test compound concentration.

Human BACE-1 = Human BACE-1 (Homo sapiens (Human), UniProt P56817); test: Test 1: Inhibition of Human BACE-1; type: biochemical; details: recombinant BACE-1, pH 4.5, 1 hour preincubation
Chain of Human BACE-1 (P56817 46-457): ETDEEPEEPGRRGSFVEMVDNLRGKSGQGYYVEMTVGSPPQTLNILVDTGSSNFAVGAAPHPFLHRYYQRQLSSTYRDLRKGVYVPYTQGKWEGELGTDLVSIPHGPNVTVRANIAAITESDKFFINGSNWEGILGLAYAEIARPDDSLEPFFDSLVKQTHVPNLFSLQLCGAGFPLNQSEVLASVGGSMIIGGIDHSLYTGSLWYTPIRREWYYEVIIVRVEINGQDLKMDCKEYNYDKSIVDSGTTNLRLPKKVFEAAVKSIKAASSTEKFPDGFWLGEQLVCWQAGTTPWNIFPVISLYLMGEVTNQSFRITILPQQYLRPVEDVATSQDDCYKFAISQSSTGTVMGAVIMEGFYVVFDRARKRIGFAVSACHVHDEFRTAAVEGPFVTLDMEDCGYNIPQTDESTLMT
Procedure: Test 1: Inhibition of Human BACE-1
(§1) Recombinant BACE-1 (extracellular domain, expressed in baculovirus and purified using standard methods) at 0.1 to 1 nM concentrations is incubated with the test compound at various concentrations for 1 hour at room temperature in 100 mM acetate buffer, pH 4.5, containing 0.1% CHAPS. Activity was measured using a final concentration of 3 μM of the fluorescence-quenched substrate Q-C(HSO3)-Ile-Asp-Leu-Ala-Val-Leu-Asp-HN—CH2—CH2-Mca, where Q=2-nitro-5-amino benzoic acid and Mca=7-methoxy-4-coumarinyl acetic acid. Catalytic turnover was monitored in a Spectramax Gemini fluorescence plate reader (Molecular Devices) in black 96-well microplates using excitation/emission wavelength of 325 nm and 400 nm, respectively. Fluorescence increase was followed for 15 min, in 1 minute's intervals. The fluorescence/time slopes were calculated from duplicate wells and from wells without inhibitor and the IC50 values were calculated using a logistic 4-parameter model.

Human BACE-2 = Human BACE-2 (Homo sapiens (Human), UniProt Q9Y5Z0); test: Test 2: Inhibition of Human BACE-2; type: biochemical; details: recombinant BACE-2, pH 4.5, 1 hour preincubation
Chain of Human BACE-2 (Q9Y5Z0 63-473): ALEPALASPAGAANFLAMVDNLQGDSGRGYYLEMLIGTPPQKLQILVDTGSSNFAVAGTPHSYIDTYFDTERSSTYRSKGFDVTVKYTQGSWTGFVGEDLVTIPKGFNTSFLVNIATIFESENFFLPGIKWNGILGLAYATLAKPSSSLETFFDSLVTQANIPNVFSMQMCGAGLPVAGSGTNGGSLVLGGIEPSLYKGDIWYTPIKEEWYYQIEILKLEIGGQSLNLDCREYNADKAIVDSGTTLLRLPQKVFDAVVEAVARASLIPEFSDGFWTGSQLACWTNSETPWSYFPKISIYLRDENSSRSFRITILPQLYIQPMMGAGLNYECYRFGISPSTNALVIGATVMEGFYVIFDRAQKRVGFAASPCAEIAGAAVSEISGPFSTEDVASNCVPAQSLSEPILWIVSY
Procedure: Test 2: Inhibition of Human BACE-2
as §1, with “BACE-2” for “BACE-1”

IC50 [1] [nM] | IC50 (Human BACE-1) [nM] | IC50 (Human BACE-2) [nM] | Structure (SMILES)
30 | 110 | 730 | C[C@]1(c2nc(NC(=O)c3ncc(OCF)nc3N)ccc2F)N=C(N)OCC1(F)F [Example 15, 3-Amino-5-fluoromethoxy-pyrazine-2-carboxylic acid [6-((R)-2-amino-5,5-difluoro-4-methyl-5,6-dihydro-4H-[1,3]oxazin-4-yl)-5-fluoro-pyridin-2-yl]-amide]
 | 120 | 8900 | COCCOc1cnc(C(=O)Nc2ccc(F)c([C@@]3(C)N=C(N)OCC3(F)F)n2)c(N)n1 [Example 16, 3-Amino-5-(2-methoxy-ethoxy)-pyrazine-2-carboxylic acid [6-((R)-2-amino-5,5-difluoro-4-methyl-5,6-dihydro-4H-[1,3]oxazin-4-yl)-5-fluoro-pyridin-2-yl]amide]
62 | 240 | 8200 | C[C@]1(c2nc(NC(=O)c3ncc(C#CCO)cc3N)ccc2F)N=C(N)OCC1(F)F [Example 17, 3-Amino-5-(3-hydroxy-prop-1-ynyl)-pyridine-2-carboxylic acid [6-((R)-2-amino-5,5-difluoro-4-methyl-5,6-dihydro-4H-[1,3]oxazin-4-yl)-5-fluoro-pyridin-2-yl]-amide]
88 | 330 | 120 | C[C@]1(c2nc(NC(=O)c3ncc(F)cc3N)ccc2F)N=C(N)OCC1(F)F [Example 18, 3-Amino-5-fluoro-pyridine-2-carboxylic acid [6-((R)-2-amino-5,5-difluoro-4-methyl-5,6-dihydro-4H-[1,3]oxazin-4-yl)-5-fluoro-pyridin-2-yl]-amide]
45 | 60 | 48 | C[C@]1(c2nc(NC(=O)c3ncc(Cl)cc3N)ccc2F)N=C(N)OCC1(F)F [Example 19, 3-Amino-5-chloro-pyridine-2-carboxylic acid [6-((R)-2-amino-5,5-difluoro-4-methyl-5,6-dihydro-4H-[1,3]oxazin-4-yl)-5-fluoro-pyridin-2-yl]-amide]
88 | 360 | 95 | C[C@]1(c2nc(NC(=O)c3ncccc3Cl)ccc2F)N=C(N)OCC1(F)F [Example 20, 3-Chloro-pyridine-2-carboxylic acid [6-((R)-2-amino-5,5-difluoro-4-methyl-5,6-dihydro-4H-[1,3]oxazin-4-yl)-5-fluoro-pyridin-2-yl]-amide]
81 | 83 | 840 | COCC#Cc1cnc(C(=O)Nc2ccc(F)c([C@@]3(C)N=C(N)OCC3(F)F)n2)c(Cl)c1 [Example 21, 3-Chloro-5-(3-methoxy-prop-1-ynyl)pyridine-2-carboxylic acid [6-((R)-2-amino-5,5-difluoro-4-methyl-5,6-dihydro-4H-[1,3]oxazin-4-yl)-5-fluoro-pyridin-2-yl]-amide]
60 | 190 | 580 | C[C@]1(c2nc(NC(=O)c3ncc(C(F)F)nc3N)ccc2F)N=C(N)OCC1(F)F [Example 22, 3-Amino-5-difluoromethyl-pyrazine-2-carboxylic acid [6-((R)-2-amino-5,5-difluoro-4-methyl-5,6-dihydro-4H-[1,3]oxazin-4-yl)-5-fluoro-pyridin-2-yl]-amide]
2900 | 8700 | > 10000 | C[C@]1(c2nc(NC(=O)c3ncc(OCCCl)nc3N)ccc2F)N=C(N)OCC1(F)F [Example 23, 3-Amino-5-(2-chloro-ethoxy)-pyrazine-2-carboxylic acid [6-((R)-2-amino-5,5-difluoro-4-methyl-5,6-dihydro-4H-[1,3]oxazin-4-yl)-5-fluoro-pyridin-2-yl]-amide]
250 | 240 | 4500 | C[C@]1(c2nc(NC(=O)c3ncc(OCC(F)F)cc3Cl)ccc2F)N=C(N)OCC1(F)F [Example 24, 3-Chloro-5-(2,2-difluoro-ethoxy)-pyridine-2-carboxylic acid [6-((R)-2-amino-5,5-difluoro-4-methyl-5,6-dihydro-4H-[1,3]oxazin-4-yl)-5-fluoro-pyridin-2-yl]-amide]
58 |  |  | CC(F)(F)c1cnc(C(=O)Nc2ccc(F)c([C@@]3(C)N=C(N)OCC3(F)F)n2)c(Cl)c1 [Example 36, 3-Chloro-5-(1,1-difluoro-ethyl)-pyridine-2-carboxylic acid [6-((R)-2-amino-5,5-difluoro-4-methyl-5,6-dihydro-4H-[1,3]oxazin-4-yl)-5-fluoro-pyridin-2-yl]-amide]

The remaining lines, values behind:

Structure (SMILES) | IC50 [1] [nM] | IC50 (Human BACE-1) [nM] | IC50 (Human BACE-2) [nM]
Cc1cc(C#N)cnc1C(=O)Nc1ccc(F)c([C@@]2(C)N=C(N)OCC2(F)F)n1 [Example 1, 5-Cyano-3-methyl-pyridine-2-carboxylic acid [6-((R)-2-amino-5,5-difluoro-4-methyl-5,6-dihydro-4H-[1,3]oxazin-4-yl)-5-fluoro-pyridin-2-yl]-amide] | 7 | 12 | 66
COCC[C@@]1(c2nc(NC(=O)c3ncc(C#N)cc3C)ccc2F)N=C(N)OCC1(F)F [Example 5] | > 10000 |  | 
COCC[C@]1(c2nc(NC(=O)c3ncc(C(F)(F)F)cc3Cl)ccc2F)N=C(N)OCC1(F)F [Example 6, 3-Chloro-5-trifluoromethyl-pyridine-2-carboxylic acid {6-[(R)-2-amino-5,5-difluoro-4-(2-methoxy-ethyl)-5,6-dihydro-4H-[1,3]oxazin-4-yl]-5-fluoro-pyridin-2-yl}-amide] | 380 | 650 | 6600
C[C@]1(c2nc(NC(=O)c3ncc(C(F)(F)F)nc3N)ccc2F)N=C(N)OCC1(F)F [Example 8, 3-Amino-5-trifluoromethyl-pyrazine-2-carboxylic acid [6-((R)-2-amino-5,5-difluoro-4-methyl-5,6-dihydro-4H-[1,3]oxazin-4-yl)-5-fluoro-pyridin-2-yl]-amide] | 140 | 160 | 1400
C[C@]1(c2nc(NC(=O)c3ncc(Cl)cc3Cl)ccc2F)N=C(N)OCC1(F)F [Example 9, 3,5-Dichloro-pyridine-2-carboxylic acid [6-((R)-2-amino-5,5-difluoro-4-methyl-5,6-dihydro-4H-[1,3]oxazin-4-yl)-5-fluoro-pyridin-2-yl]-amide] | 12 | 18 | 4
C[C@]1(c2nc(NC(=O)c3ncc(OCC(F)(F)F)nc3N)ccc2F)N=C(N)OCC1(F)F [Example 10, 3-Amino-5-(2,2,2-trifluoro-ethoxy)pyrazine-2-carboxylic acid [6-((R)-2-amino-5,5-difluoro-4-methyl-5,6-dihydro-4H-[1,3]oxazin-4-yl)-5-fluoro-pyridin-2-yl]-amide] | 600 | 590 | 3800
C[C@]1(c2nc(NC(=O)c3ncc(OCC(F)F)nc3N)ccc2F)N=C(N)OCC1(F)F [Example 11, 3-Amino-5-(2,2-difluoro-ethoxy)-pyrazine-2-carboxylic acid [6-((R)-2-amino-5,5-difluoro-4-methyl-5,6-dihydro-4H-[1,3]oxazin-4-yl)-5-fluoro-pyridin-2-yl]-amide] | 440 | 830 | 2900
C[C@]1(c2nc(NC(=O)c3ncc(OCCCF)nc3N)ccc2F)N=C(N)OCC1(F)F [Example 12, 3-Amino-5-(3-fluoro-propoxy)-pyrazine-2-carboxylic acid [6-((R)-2-amino-5,5-difluoro-4-methyl-5,6-dihydro-4H-[1,3]oxazin-4-yl)-5-fluoro-pyridin-2-yl]-amide] | 310 | 1200 | > 10000
COc1cnc(C(=O)Nc2ccc(F)c([C@@]3(C)N=C(N)OCC3(F)F)n2)c(C)c1 [Example 13, 5-Methoxy-3-methyl-pyridine-2-carboxylic acid [6-((R)-2-amino-5,5-difluoro-4-methyl-5,6-dihydro-4H-[1,3]oxazin-4-yl)-5-fluoro-pyridin-2-yl]-amide] | 82 |  | 
COCC#Cc1cnc(C(=O)Nc2ccc(F)c([C@@]3(C)N=C(N)OCC3(F)F)n2)c(N)c1 [Example 14, 3-Amino-5-(3-methoxy-prop-1-ynyl)-pyridine-2-carboxylic acid [6-((R)-2-amino-5,5-difluoro-4-methyl-5,6-dihydro-4H-[1,3]oxazin-4-yl)-5-fluoro-pyridin-2-yl]-amide] | 540 |  | 
